The values below come from patent US12071436B2, “Anti-parasitic compounds and uses thereof” (Memorial Sloan-Kettering Cancer Center, priority 2016, dated 2024).

One data set relates to Asynchronous cultures. Nature of the data set: Parasitocidal or parasitostatic determination (rate of killing). The note with it: 3×IC50, asynchronous cultures treated for 12, 24, 48, or 72 hours, washed, monitored for continued growth. Type of data set: cell-based. The procedure: Asynchronous cultures were grown and treated with compounds, vehicle control or Dihydroartemisinin at 3×IC50 to determine their respective rate of killing curves. Cultures were treated for 12, 24, 48, or 72 hours with compound, washed several times to remove any inhibitor, and monitored for continued growth for several days. […] Overall, the exemplary compounds including, but not limited to, Tan003-M03 and ent-Tan003-D20 are parasitocidal agents blocking parasite maturation at the segmenter stage preventing egress, a novel mechanism of action absent among current antimalarials.

The subject of the next data set is P. falciparum Dd2. Nature of the data set: Anti-plasmodial growth inhibition, SYBR green I-based DNA quantification. It is filed as cell-based. The note with it: Plasmodium falciparum, 72 h incubation, n=3. The procedure: (§1) Select compounds described herein were evaluated for structure-activity analyses for anti-plasmodial activity in vitro. For Dd2 EC50 (M), calculations were for n=3. For HepG2 EC50 (M), calculations were for n=1. For the human microsomal stability determination, t was 60 minutes.
Different dilutions of the compound in RPMI 1640 (Life Technologies) from a stock of 10 mM in dimethyl sulfoxide (DMSO) were added to the culture at a 1% parasitemia and 2% hematocrit in 96-well black plates (Santa Cruz Biotechnology). Maximum DMSO concentration in the culture never exceeded 0.25%. Chloroquine at 1 μM was used as a positive control to determine the baseline value. Following 72 h incubation at 37° C., the ability of the compounds to inhibit growth of the parasite was determined by a SYBR green I-based DNA quantification assay (See Bennett et al., 2004, Chemother. 48, 1807-1810; see also Johnson et al., 2007, Antimicrob. Agents. Chemother. 51, 1926-1933; Smilkstein et al., 2004, Antimicrob. Agents. Chemother. 48, 1803-1806). EC50 was calculated (n=3) from a dose response curve that was generated from a concentration range of 0-20 μM using GraphPad Prism v5.0.

The subject of data set [1] is HepG2 human hepatoma cells. Description: HepG2 cytotoxicity, MTS cell proliferation assay. It is filed as cell-based. The note with it: 48 h, n=1. The procedure:
as §1
Selected compounds were evaluated for cytotoxicity using HepG2 human hepatoma cells. A 384-well clear bottom plate was seeded with 2,500 cells/well and incubated for 24 h. Serial dilutions of the compound (were added to the plate and plates were incubated for an additional 48 h. Viability of cells were assessed by MTS [(3-(4,5-dimethylthiazol-2-yl)-5-(3-carboxymethoxyphenyl)-2-(4-sulfophenyl)-2H-tetrazolium) cell proliferation assay (CellTiter 96® Aqueous non-radioactive cell proliferation assay, Promega) (See Cory et al., Cancer Communications, 3, 1991, p. 207-212).

Data set [2] in a line: Plasma pharmacokinetics and liver distribution study in female BALB/c mice. The note with it: 100 mg/kg, female BALB/c mice; for Tmax: mouse, plasma, read-out: Tmax (plasma). It is filed as in vivo, mouse. The procedure:
A plasma pharmacokinetics and liver distribution study of selected compounds, including Pyrrolopyridine-008 (2015-foleyc-216), Pyrrolopyridine-D20-ent (2015-foleyc-217), and Pyrrolopyridine-M03 (2015-foleyc-218), in female BALB/c mice was conducted following a single intraperitoneal and oral administration. […] The blood samples were collected from a set of […] mice at each time point in labeled micro centrifuge tube containing K2EDTA as anticoagulant. Plasma samples were separated by centrifugation at 4000 rpm for 10 min and stored below −70° C. until bioanalysis. After collection of blood sample, animals were humanely euthanized by carbon dioxide asphyxiation to collect liver from Group 1 and Group 2 at all the time points. The collected tissues were rinsed in PBS and were homogenized with nine times of liver weight in ice cold phosphate buffer saline (pH 7.4) and stored below −70° C. until bio-analysis. Total homogenate volume was ten times the tissue weight. All samples were processed for analysis by protein precipitation using acetonitrile and analyzed with fit-for-purpose LC-MS/MS method (LLOQ: 2.01 ng/mL for plasma and 50.30 ng/g for liver). Pharmacokinetic parameters were calculated using the non-compartmental analysis tool of Phoenix WinNonlin® (Version 6.3).

The test system of data set [3] is synchronized parasite cultures (Dd2). Description: Stage specific parasite inhibition (Giemsa smears, flow cytometry). Type of data set: cell-based, P. falciparum. Conditions: for parasite stage development, Giemsa staining: 3×IC50, synchronized Dd2 cultures treated at ring, trophozoite or schizont stages, smears every 12 hours; for parasite stage progression, flow cytometry: 3×IC50, synchronized Dd2 cultures, YoYo-I DNA staining. The procedure: Select compounds described herein were evaluated for stage specific inhibition of parasite development. Tightly synchronized parasite cultures (Dd2) were treated with 3×IC50 concentrations of compound Tan003-M03 (“M03”), compound ent-Tan003-D20 (“D20-ent”), compound Tan003-O08 (“008”) or compound Tan002-O12 (“012”) at early ring, late ring, trophozoite, and schizont stages. Every 12 hours, Giemsa smears were made for treated cultures and samples were also collected and fixed for flow cytometry. […] Prior to flow analysis, fixed samples were permeabilized, RNase treated, and stained with YoYo-I as described in Bouillon et al., 2013. […] As the parasite matures, the DNA content increases and peaks start to spread to the right because of schizogony. Following reinvasion parasitemia increases in the next growth cycle, which is represented by an increase in peak height.
(In general: Flow cytometry measures light scatter and fluorescence of single cells or particles in a stream.)

Data set [4] is described as follows: Human microsomal stability. It is filed as in vitro ADME. The note with it: t was 60 minutes. The procedure: as §1
To determine microsomal stability for selected compounds, a reaction plate was prepared by adding 691.25 μL, pre-warmed (37° C.) microsomal solution (0.63 mg/mL protein in 100 mM KPO4 with 1.3 mM EDTA) to an empty well of a 96 well plate and maintained at 37° C. The diluted 0.1 mM compound (8.75 μL) is added to the microsomal solution in the reaction plate and mixed thoroughly by repeated pipetting. The resulting solutions were pre-incubated for 5 minutes at 37° C. before preparing the T=0 plates. For the T=0 plates, an aliquot (160 μL) of each reaction solution was added to an empty well of a 96 well plate, as an exact replicate of the Reaction Plate. Cold (4° C.) MeOH (400 μL) is added to each well and mixed thoroughly by repeated pipetting. NADPH Regeneration solution (40 μL) is added to each well and mixed thoroughly by repeated pipetting. For the T=60 minute Incubation Plates (without NADPH), an aliquot (160 μL) of each reaction solution was added to an empty well of a 96 well plate, as an exact replicate of the Reaction Plate. LC-MS grade H2O (40 μL) is added to each well and mixed thoroughly by repeated pipetting. The plate was sealed and incubated at 37° C. for the incubation period. After incubation, cold (4° C.) MeOH (400 μL) is added to each well and mixed thoroughly by repeated pipetting. For the T=60 minute Incubation Plates, NADPH (95 μL) was added to the remaining solution (microsomes+test compound) in each well in the previously-prepared reaction plate to initiate the reaction. The plate was sealed and incubated at 37° C. for the incubation period. An aliquot (100 μL) was removed from each well at the desired time point and dispensed into a well of a 96-well plate. 200 μL of cold (4° C.) MeOH was […] the reaction.

A short description of data set [5]: PAMPA, Corning Gentest Pre-coated PAMPA plate. Type of data set: in vitro ADME. Conditions: 1×PBS, pH 7.4, five hours, ambient temperature, read-out: Permeability (log Pe, in [cm/s]) (converted). The procedure:
For selected compounds, a Parallel artificial membrane permeability assay (PAMPA) analysis was conducted. The 10 mM DMSO stock solutions for selected compounds (Tan003-M03, ent-Tan003-M03, Tan003-O08, and Tan003-D20) were diluted 50 fold with 1×PBS, pH 7.4, for a dose concentration of 200 µM and a volume of 300 μL in the Donor compartment of the Corning Gentest Pre-coated PAMPA plate. After preparation of the Donor plate, any precipitation was noted. The Acceptor compartment was filled with 1×PBS (200 μL), pH 7.4. After careful assembly of the PAMPA plate, it was left to incubate for five hours in the dark at ambient temperature. The previously prepared solubility assay was used to measure the initial concentration of the sample in buffer (C0). After the incubation was complete, the PAMPA plate was disassembled, and the samples were transferred from the Donor and Acceptor plates to 96-well plates for analysis by chemiluminescent nitrogen detection (CLND. The C0 plate was filtered prior to analysis by CLND.

The next data set can be described thus: Kinetic solubility assay. It is filed as physicochemical. Conditions: 24 °C, kinetic from dmso stock, ambient temperature.
[6] abbreviates: 50 mM NaPO4 pH 6.5 buffer, pH 6.5, aqueous buffer, 50 mM NaPO4 pH6.5, 2.0% DMSO, read-out: Solubility LogS, at pH 6.5 (converted).
Setting [7] is: 1×PBS pH 7.4 buffer, pH 7.4, aqueous buffer, 1×PBS pH7.4, 2.0% DMSO, read-out: Solubility LogS, at pH 7.4 (converted).
Setting [8] is: SGF pH 1.2 buffer, pH 1.2, simulated gastric fluid, SGF pH1.2, 2.0% DMSO, read-out: Solubility LogS, at pH 1.2 (converted).

SMILES strings stand for the structures. In brackets after ≈: the same amount, converted by molar mass. Entries after “also recorded” stand apart in the source; their conditions may differ. Where two headings read alike, the source gives them in different places.

In general, EC50 refers to the concentration that produces a half-maximal response. Read a low EC50 as a more potent agent. For orientation: Tmax means the time at which the peak concentration occurs. With `CCOC(=O)c1cc2c(c(-c3ccccc3)n1)[C@@H](CCO)N([S@+]([O-])C(C)(C)C)C2` [Tan002-O12, Ethyl (R)-2-((R)-tert-butylsulfinyl)-3-(2-hydroxyethyl)-4-phenyl-2,3-dihydro-1H-pyrrolo[3,4-c]pyridine-6-carboxylate], in the data set on Asynchronous cultures, the “parasitocidal activity (rate of killing)” value is recorded as “not seen; also recorded: did not show any parasitocidal activity”. Moreover, the results for the EC50 (in the data set with P. falciparum Dd2; in data set [1]) were 890 ± 130 nM and > 100000 nM, respectively. Further, the time of peak concentration (Tmax) in data set [2] (ip, single intraperitoneal dose) was determined as 60 min; in data set [2] (single oral dose), 30 min. The “plasma concentrations quantifiable till” value in data set [2] (single intraperitoneal dose) and in data set [2] (single oral dose) was 12 h throughout. Also, in data set [3], the “parasite stage development, Giemsa staining” value (“parasite stage development” below) is recorded as “inhibit parasite development before egress”. Moreover, the “parasite stage progression, flow cytometry” value (“parasite stage progression” below) in data set [3] was “block parasite stage progression prior to egress”.

For orientation: solubility means the dissolved amount per volume that the medium holds. Consider `CC(C)(C)[S@@+]([O-])N1Cc2cc(C(=O)NCc3ccc4c(c3)OCO4)nc(-c3cccc(-c4cccnc4)c3)c2[C@H]1CCO` [Tan003-008], for which the “Human microsomal stability (%)” value in data set [4] is recorded as < 1%. Besides, the Papp at 5 h, 200 µM in data set [5] is 1.82 ×10⁻⁶ cm/s. Moreover, the half-maximal effective concentration (EC50) with P. falciparum Dd2 worked out at 530 ± 110 nM; in data set [1] it was 41000 nM. For the same compound, the solubility at 24 h in “Kinetic solubility assay” (setting [6]) was 10 µM (≈ 5.99 µg/mL); in the data set “Kinetic solubility assay” (setting [7]) it was 12.6 µM (≈ 7.54 µg/mL); in “Kinetic solubility assay” (setting [8]), 158 µM (≈ 94.9 µg/mL).

`CC(C)(C)[S@+]([O-])N1Cc2cc(C(=O)NCc3ccccc3F)nc(-c3cccc(-c4cccnc4)c3)c2[C@@H]1CCO` [Tan003-D20]: in data set [4], the “Human microsomal stability (%)” value is <1%. Moreover, the Papp at 5 h, 200 µM in data set [5] was 2.4 ×10⁻⁶ cm/s. Besides, the response in the data set with P. falciparum Dd2 was half-maximal at 380 ± 20 nM (EC50). In addition, the figures for the solubility at 24 h in the data set “Kinetic solubility assay” (setting [6]), in the data set “Kinetic solubility assay” (setting [7]) and in the data set “Kinetic solubility assay” (setting [8]) were 6.31 µM (≈ 3.61 µg/mL), 7.94 µM (≈ 4.55 µg/mL) and 158 µM (≈ 90.8 µg/mL), respectively.

Turning to `CC(C)NC(=O)N1Cc2cc(C(=O)NCC(F)(F)F)nc(-c3cccc(-c4cc5ccccc5o4)c3)c2[C@H]1CCO` [Tan003-M03, (R)-4-(3-(benzofuran-2-yl)phenyl)-3-(2-hydroxyethyl)-N^2-isopropyl-N^6-(2,2,2-trifluoroethyl)-1,3-dihydro-2H-pyrrolo[3,4-c]pyridine-2,6-dicarboxamide], the “Human microsomal stability (%)” value in data set [4] was 61.5%. Besides, the Papp at 5 h, 200 µM in data set [5] is 3.98 ×10⁻⁶ cm/s. In addition, the “parasitocidal activity (rate of killing)” value in the data set on Asynchronous cultures is “parasitocidal and prohibit progression beyond segmenter stages; also recorded: parasitocidal and prevent any parasite development beyond the schizont stage when treated for at least 48 hours”. Also, the EC50 with P. falciparum Dd2 was determined as 240 ± 70 nM; in data set [1], 45000 nM. Also, the solubility at 24 h in “Kinetic solubility assay” (setting [6]) was 6.31 µM (≈ 3.57 µg/mL); in “Kinetic solubility assay” (setting [7]), 7.94 µM (≈ 4.5 µg/mL); in “Kinetic solubility assay” (setting [8]), 7.94 µM (≈ 4.5 µg/mL). In data set [3], the “parasite stage development” value is listed as “inhibit parasite development before egress”. Moreover, in data set [3], the “parasite stage progression” value is recorded as “block parasite stage progression prior to egress”.

As to `CC(C)(C)[S@@+]([O-])N1Cc2cc(C(=O)NCc3ccccc3F)nc(-c3cccc(-c4cccnc4)c3)c2[C@H]1CCO` [ent-Tan003-D20, (R)-2-((R)-tert-butylsulfinyl)-N-(2-fluorobenzyl)-3-(2-hydroxyethyl)-4-(3-(pyridin-3-yl)phenyl)-2,3-dihydro-1H-pyrrolo[3,4-c]pyridine-6-carboxamide], the “parasitocidal activity (rate of killing)” value with Asynchronous cultures is “parasitocidal and prohibit progression beyond segmenter stages; also recorded: parasitocidal and prevent any parasite development beyond the schizont stage when treated for at least 48 hours”. Besides, the EC50 with P. falciparum Dd2 was 380 ± 90 nM. This compound showed an EC50 in data set [1] of 60000 nM. In data set [3], the “parasite stage development” value is listed as “inhibit parasite development before egress” and the “parasite stage progression” value is “block parasite stage progression prior to egress”.

In the case of `CC(C)NC(=O)N1Cc2cc(C(=O)NCC(F)(F)F)nc(-c3cccc(-c4cc5ccccc5o4)c3)c2[C@@H]1CCO` [ent-Tan003-M03], in data set [4], the “Human microsomal stability (%)” value was found to be 62.7%. The compound also gave an EC50 in the data set on P. falciparum Dd2 of 200 ± 20 nM. The solubility at 24 h in “Kinetic solubility assay” (setting [7]) is 6.31 µM (≈ 3.57 µg/mL).
